Measured values taken from patent US20230227437A1, “IMMUNOMODULATOR” (priority 2020, published 2023).

Assays:
[1] = target: T1, human IL-17A (hIL-17A) (Homo sapiens, UniProt Q16552); assay: IL-17A enzyme-linked immunosorbent assay (competitive ELISA, receptor-ligand binding)
T1 construct: purchased Sino Biological Inc. 12047-H07B
T1 sequence (Q16552 24-155): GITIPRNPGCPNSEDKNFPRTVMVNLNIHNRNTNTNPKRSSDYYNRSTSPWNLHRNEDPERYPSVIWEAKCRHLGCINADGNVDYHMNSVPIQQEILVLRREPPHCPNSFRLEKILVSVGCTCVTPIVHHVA
Procedure: The inhibition of receptor-ligand binding by human IL-17A (hIL-17A) inhibitors was detected by competitive ELISA. A 96-well plate was inoculated 0.2 μg/ml IL-17 (Sino Biological Inc. Cat #12047-H07B) for incubation at 37° C. for 30 min, 100 μL for per well. The 96-well plate was washed four times with phosphate buffered saline (PBS) containing Tween-20 (PBST, 0.05% Tween-20), 200 μL for per well each time. 200 μL of 5% skim milk were added into the 96-well plate for incubation on a shaker at 25° C. for 30 min. The 96-well plate was washed four times with PBST (0.05% Tween-20), and added with 89 μL of PBST and 1 μL of a compound to be measured (100×), in which a concentration the compound to be measured (100×) was 0.003 μM-30 μM. The mixture was mixed evenly and incubated at 25° C. for 10 min. The mixture was added with 10 μL of 16 nM IL-17R, followed by incubation at 25° C. for 30 min. After washing the 96-well plate 4 times, 100 μL of anti-Fc tag horseradish peroxidase (HRP) coupled antibody were added for incubation on a shaker at 25° C. for 30 min. After washing the 96-well plate 4 times, 100 μL of 3,3′,5,5′-tetramethylbenzidine (TMB) substrate solution were added to the 96-well plate for incubation away from light at 25° C. After addition of 20% HCl, an absorbance was measure by a microplate reader at 450 nm.
The compounds prepared according to the above method were assayed for human IL-17A inhibitory activity.

[2] = target: T2, hIL-17A (Homo sapiens, UniProt Q16552); assay: Inhibition of hIL-17A-induced chemokine GROα/CXCL1 production in HT-29 cell; assay type: cell-based
T2 construct: purchased R&D 317-ILB
T2 sequence (Q16552 20-155 limits assumed): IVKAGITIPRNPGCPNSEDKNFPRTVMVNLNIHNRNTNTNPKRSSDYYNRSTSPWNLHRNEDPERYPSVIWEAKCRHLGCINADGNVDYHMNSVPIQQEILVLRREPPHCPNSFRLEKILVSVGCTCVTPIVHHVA
Procedure: Human colorectal adenocarcinoma cell HT-29 was inoculated to a 96-well plate (5×10^4 for per well), and incubated at 37° C. on an incubator overnight. A mixture of 30 ng/mL hIL-17A protein (R&D, #317-ILB) with gradient concentrations of IL-17A small molecule inhibitors or with 0.3 μg/mL positive control IL-17A antibody (R&D, #AF-317-NA) was incubated for 1 h at 37° C., and added into the 96-well plate to incubated with HT-29 at 37° C. for 48 h. A level of GROα in a cell culture supernatant was then detected using an ELISA kit for GROα (Cisbio, #62HCXC1peg).
Inhibitory effect of the compound prepared in Examples on hIL-17A-induced chemokine GROα/CXCL1 production in HT-29 cell was tested according to the methods of Experimental Examples 1 and 2. […] “-” indicated not tested. According to the results, the compounds provided herein have good human IL-17A inhibitory activity and can be effectively used in the treatment of diseases associated with abnormal hIL-17A activity.

Compound	IC50 [1] [nM]	IC50 [2] [nM]
Cc1n[nH]c(C)c1-c1ccc(NC(=O)[C@@H](NC(=O)c2nocc2C(C)C)C2c3ccc(F)cc3OCC23CC3)cn1 (stereo partly shown) [Compound 33]	219	92
CCc1nocc1C(=O)N[C@H](C(=O)Nc1ccc(-c2c(C)n[nH]c2C)nc1)C1c2ccc(F)cc2OCC12CC2 (stereo partly shown) [Compound 34]	120	63
Cc1n[nH]c(C)c1-c1ccc(NC(=O)[C@@H](NC(=O)c2nocc2C(C)C)C2c3ccc(F)cc3OCC23CC3)cc1 (stereo partly shown) [Compound 35]	311	85
CCc1nocc1C(=O)N[C@H](C(=O)Nc1ccc(-c2c(C)n[nH]c2C)cc1)C1c2ccc(F)cc2OCC12CC2 (stereo partly shown) [Compound 36]	144	58
CCc1nonc1C(=O)N[C@H](C(=O)Nc1ccc(-c2c(C)n[nH]c2C)c(F)c1)C1c2ccc(F)cc2OCC12CC2 (stereo partly shown) [Compound 38]	276	506
Cc1n[nH]c(C)c1-c1ncc(NC(=O)[C@@H](NC(=O)c2nonc2C(C)C)C2c3ccc(F)cc3OCC23CC3)cc1F (stereo partly shown) [Compound 39]	111	856
Cc1n[nH]c(C)c1-c1ccc(NC(=O)[C@@H](NC(=O)c2nonc2C(C)C)C2c3ccc(F)cc3OCC23CC3)cc1F (stereo partly shown) [Compound 40]	186	115
Cc1nonc1C(=O)N[C@H](C(=O)Nc1ccc(-c2c(C)n[nH]c2C)cc1)C1c2cc(F)c(F)cc2OCC12CC2 (stereo partly shown) [Compound 42]	40	70
Cc1nonc1C(=O)N[C@H](C(=O)Nc1ccc(-c2c(C)n[nH]c2C)cc1)C1c2c(F)cc(F)cc2OCC12CC2 (stereo partly shown) [Compound 52]	402	–
CCc1nonc1C(=O)N[C@H](C(=O)Nc1ccc(-c2c(C)n[nH]c2C)cc1)C1c2c(F)cc(F)cc2OCC12CC2 (stereo partly shown) [Compound 53]	554	–
Cc1n[nH]c(C)c1-c1ccc(NC(=O)[C@@H](NC(=O)c2ccnn2C(C)C)C2c3c(F)cc(F)cc3OCC23CC3)cc1 (stereo partly shown) [Compound 54]	136	–
Cc1n[nH]c(C)c1-c1ccc(NC(=O)[C@@H](NC(=O)c2c(C(C)C)no[n+]2[O-])C2c3c(F)cc(F)cc3OCC23CC3)cc1 (stereo partly shown) [Compound 61]	339	–
Cc1n[nH]c(C)c1-c1ccc(NC(=O)[C@@H](NC(=O)c2nonc2C(C)C)C2c3c(F)cc(F)cc3OCC23CC3)cn1 (stereo partly shown) [Compound 66]	7130	–
Cc1n[nH]c(C)c1-c1ccc(NC(=O)[C@@H](NC(=O)c2ccnn2C(C)C)C2c3c(F)ccc(F)c3OCC23CC3)cn1 (stereo partly shown) [Compound 75]	5000	–
CCc1nonc1C(=O)N[C@H](C(=O)Nc1ccc(-c2c(C)n[nH]c2C)cc1)C1c2c(F)ccc(F)c2OCC12CC2 (stereo partly shown) [Compound 78]	985	–
Cc1n[nH]c(C)c1-c1ccc(NC(=O)[C@@H](NC(=O)c2nonc2C(C)C)C2c3c(F)ccc(F)c3OCC23CC3)cn1 (stereo partly shown) [Compound 79]	32500	–
Cc1nonc1C(=O)N[C@H](C(=O)Nc1ccc(-c2c(C)n[nH]c2C)cc1)C1c2c(F)ccc(F)c2OCC12CC2 (stereo partly shown) [Compound 81]	2060	–
Cc1n[nH]c(C)c1-c1ccc(NC(=O)[C@@H](NC(=O)c2nonc2C(C)C)C2c3c(F)ccc(F)c3OCC23CC3)cc1 (stereo partly shown) [Compound 82]	2030	–
Cc1n[nH]c(C)c1-c1ncc(NC(=O)[C@@H](NC(=O)c2ccnn2C(C)C)C2c3c(F)ccc(F)c3OCC23CC3)cc1F (stereo partly shown) [Compound 83]	2020	–
Cc1n[nH]c(C)c1-c1ncc(NC(=O)[C@@H](NC(=O)c2nonc2C(C)C)C2c3c(F)ccc(F)c3OCC23CC3)cc1F (stereo partly shown) [Compound 84]	9810	–
COCCc1nocc1C(=O)N[C@H](C(=O)Nc1cnc(-c2c(C)n[nH]c2C)c(F)c1)C1c2cc(F)c(F)cc2OCC12CC2 (stereo partly shown) [Compound 88]	100	–
Cc1n[nH]c(C)c1-c1ccc(NC(=O)[C@@H](NC(=O)c2conc2C2CC2)C2c3cc(F)c(F)cc3OCC23CC3)cc1 (stereo partly shown) [Compound 98]	222	–
COCCc1nocc1C(=O)N[C@H](C(=O)Nc1ccc(-c2c(C)n[nH]c2C)cc1)C1c2cc(F)c(F)cc2OCC12CC2 (stereo partly shown) [Compound 104]	116	–
